What all share (type): biochemical
One test concerns the target T1, human GST-CLK1 (129-end) (Homo sapiens, UniProt P49759).
T1 construct: purified human GST-CLK1 (129-end, Signalchem) enzyme; GST; purchased Signalchem
The test is described as follows: GST-CLK1 enzyme inhibition, ADP-Glo kinase assay. Conditions: ATP 10 uM. In short, it runs like this:
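ADP formation was read by ADP-Glo luminescence after 1 h at 25° C with 3 ng human GST-CLK1 (129-end), substrate and 10 uM ATP in Tris pH 7.4 buffer containing MgCl2, BSA and DTT. Inhibition relative to untreated solvent control gave IC50 (nM), run in triplicate.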

The target of a further test is LRRK2 (G2019S) (Homo sapiens, UniProt Q5S007, G2019S). As to the kind of experiment: LRRK2 G2019S enzyme inhibition, ADP-Glo kinase assay. The arrangement: purchased SignalChem L10-12GG. As for the experimental part:
In order to evaluate the inhibitory activity of the compounds according to the present invention on LRRK2, LRRK2 (G2019S), DYRK1, CLK1 and TTK kinases, the following experiment was performed.
Example compounds were reacted with the purified human LRRK2 G2019S (L10-12GG, SignalChem) enzyme to evaluate the enzyme inhibitory ability as follows. The reaction buffer was used as the composition of 40 mM Tris-HCl pH7.4, 20 mM MgCl2, 0.5 mg/ml BSA and 50 μM DTT, and the reaction of all test materials was performed on the reaction buffer. The compound was diluted with 10 mM DMSO stock in 12 steps by a serial dilution method, and the enzyme activity was measured at the final compound concentrations of 50, 10, 2, 0.4, 0.08, 0.016, 0.0032, 0.00064, 0.000128, 0.0000256, 0.00000512 and 0.000001024 μM. In the test, the human LRRK2 G2019S (16 ng) enzyme was reacted with the purified ATP (25 μM) and an enzyme substrate (0.2 μg) at 25° C. for 2 hours, and then the enzyme activity was identified using the in vitro ADP-Glo™ kinase assay (promega). The enzyme activity reaction liquid, an ADP-Glo reaction liquid and an enzyme potency detection solution were reacted in a ratio of 2:2:1, and the degree of inhibition of enzyme activity was measured by Luminescence. The degree of inhibition of enzyme activity according to the treatment concentrations of the respective compounds was calculated based on the fluorescence of the enzyme activity of a solvent control group that was not treated with the compound, where the concentration of each compound to inhibit enzyme activity inhibition by 50% was determined as an IC50 (nM) value and obtained using Prism (Version 5.01, GraphPad) software.
In the table below, the following designations were used for the evaluation of enzyme inhibitory ability.

For test [1], the target named is T2, human GST-DYRK1A (full length) (Homo sapiens, UniProt Q13627).
T2 construct: purified human GST-DYRK1A (full length, Thermo scientifics) enzyme; GST; purchased Thermo scientifics
The test is described as follows: GST-DYRK1A enzyme inhibition, ADP-Glo kinase assay. As to conditions: read-out: DYRK1 IC50. A digest of the protocol: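 ADP-Glo luminescence quantified kinase activity after a 1 h, 25° C reaction of 10 ng full-length GST-tagged human DYRK1A, substrate and 10 uM ATP in Tris-HCl buffer pH 7.4 with MgCl2, BSA and DTT. Triplicate IC50 values (nM) calculated relative to untreated solvent control.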

A word on the IC50: it is the point on the concentration scale where inhibition reaches its midpoint.

T1 sequence (P49759 129-484 limits assumed): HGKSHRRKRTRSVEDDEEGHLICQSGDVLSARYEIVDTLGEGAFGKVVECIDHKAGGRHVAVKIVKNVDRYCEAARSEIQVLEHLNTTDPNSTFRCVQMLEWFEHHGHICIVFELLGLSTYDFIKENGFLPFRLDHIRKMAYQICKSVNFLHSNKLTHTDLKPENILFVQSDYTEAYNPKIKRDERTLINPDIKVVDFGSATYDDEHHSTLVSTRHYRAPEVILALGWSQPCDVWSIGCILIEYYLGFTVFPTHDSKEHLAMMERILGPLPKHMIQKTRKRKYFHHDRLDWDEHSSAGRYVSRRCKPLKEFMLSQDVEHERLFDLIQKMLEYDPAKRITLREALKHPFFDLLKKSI
Chain of LRRK2 (G2019S) (Q5S007 970-2527 G2019S limits assumed): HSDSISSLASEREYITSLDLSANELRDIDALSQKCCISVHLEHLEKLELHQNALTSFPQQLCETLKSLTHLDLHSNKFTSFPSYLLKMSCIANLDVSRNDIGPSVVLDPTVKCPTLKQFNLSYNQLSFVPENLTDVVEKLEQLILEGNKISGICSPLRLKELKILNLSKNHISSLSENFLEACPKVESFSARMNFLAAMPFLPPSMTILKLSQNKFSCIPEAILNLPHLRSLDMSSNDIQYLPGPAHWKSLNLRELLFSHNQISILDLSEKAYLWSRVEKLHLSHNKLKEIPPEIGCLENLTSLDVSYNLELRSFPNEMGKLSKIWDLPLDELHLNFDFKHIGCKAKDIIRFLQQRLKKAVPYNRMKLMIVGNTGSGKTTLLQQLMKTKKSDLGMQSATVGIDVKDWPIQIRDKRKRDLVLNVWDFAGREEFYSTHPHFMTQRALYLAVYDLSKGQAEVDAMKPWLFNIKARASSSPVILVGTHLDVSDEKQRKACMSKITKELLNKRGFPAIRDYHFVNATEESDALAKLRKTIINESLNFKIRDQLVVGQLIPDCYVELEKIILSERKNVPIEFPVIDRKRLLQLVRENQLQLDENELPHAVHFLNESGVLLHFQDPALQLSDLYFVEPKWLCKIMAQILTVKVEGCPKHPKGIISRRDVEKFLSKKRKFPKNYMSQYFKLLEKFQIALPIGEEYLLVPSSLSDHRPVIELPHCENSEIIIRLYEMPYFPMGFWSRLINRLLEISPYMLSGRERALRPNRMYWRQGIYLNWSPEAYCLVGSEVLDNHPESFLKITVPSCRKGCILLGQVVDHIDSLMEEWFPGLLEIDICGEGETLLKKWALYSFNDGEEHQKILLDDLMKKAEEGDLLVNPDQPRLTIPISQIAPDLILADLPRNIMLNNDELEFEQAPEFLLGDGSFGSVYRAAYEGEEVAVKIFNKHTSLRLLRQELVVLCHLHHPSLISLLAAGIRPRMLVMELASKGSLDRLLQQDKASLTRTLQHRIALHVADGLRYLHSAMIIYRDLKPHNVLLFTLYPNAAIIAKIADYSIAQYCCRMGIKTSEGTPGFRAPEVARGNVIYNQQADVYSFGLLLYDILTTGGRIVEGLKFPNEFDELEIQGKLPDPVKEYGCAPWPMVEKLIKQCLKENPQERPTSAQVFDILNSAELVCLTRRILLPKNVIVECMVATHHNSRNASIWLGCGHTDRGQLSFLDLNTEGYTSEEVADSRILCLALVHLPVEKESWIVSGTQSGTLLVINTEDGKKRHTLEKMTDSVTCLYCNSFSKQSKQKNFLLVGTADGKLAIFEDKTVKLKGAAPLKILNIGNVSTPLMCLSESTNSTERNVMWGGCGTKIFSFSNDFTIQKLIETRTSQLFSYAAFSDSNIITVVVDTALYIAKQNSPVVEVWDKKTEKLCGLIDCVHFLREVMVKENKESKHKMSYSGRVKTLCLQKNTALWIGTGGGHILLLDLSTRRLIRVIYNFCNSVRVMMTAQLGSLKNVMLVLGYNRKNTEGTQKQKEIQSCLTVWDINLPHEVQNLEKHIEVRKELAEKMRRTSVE

In the case of `O=C(c1ccc(Nc2cc(NC3CC3)c3c(Cl)c[nH]c3n2)c2c1OCCO2)N1CCOCC1` [Example 60, (8-((3-chloro-4-(cyclopropylamino)-1H-pyrrolo[2,3-b]pyridin-6-yl)amino)-2,3-dihydrobenzo [b] [1,4]dioxin-5-yl)(morpholino) methanone], the IC50 is 301 to 1000 nM against human GST-CLK1 (129-end), < 100 nM on LRRK2 (G2019S) and 301 to 1000 nM in test [1].

As to `CS(=O)(=O)CCNc1cc(Nc2ccc(C(=O)N3CCOCC3)c3c2OCCO3)nc2[nH]cc(Cl)c12` [Example 63, (8-((3-chloro-4-((2-(methylsulfonyl)ethyl)amino)-1H-pyrrolo[2,3-b]pyridin-6-yl)amino)-2,3-dihydrobenzo[b] [1,4]dioxin-5-yl)(morpholino) methanone], the 50% inhibitory concentration (IC50) at human GST-CLK1 (129-end) is 301 to 1000 nM; at LRRK2 (G2019S) it was < 100 nM; in test [1] it was 301 to 1000 nM.

As for `CCNc1cc(Nc2ccc(C(=O)N3C[C@@H](C)O[C@@H](C)C3)c3c2OCC3)nc2[nH]cc(C(F)(F)F)c12` [Example 258, ((2S,6R)-2,6-dimethylmorpholino) (7-((4-(ethylamino)-3-(trifluoromethyl)-1H-pyrrolo[2,3-b]pyridin-6-yl)amino)-2,3-dihydrobenzofuran-4-yl)methanone], the concentration for half-maximal inhibition (IC50) against human GST-CLK1 (129-end) is 101 to 300 nM; on LRRK2 (G2019S) it was 301 to 1000 nM; in test [1], < 100 nM.

With `COc1cc(S(C)(=O)=O)ccc1Nc1cc(NCCS(C)(=O)=O)c2cc[nH]c2n1` [Example 31, N^6-(2-methoxy-4-(methylsulfonyl)phenyl)-N^4-(2-(methylsulfonyl)ethyl)-1H-pyrrolo[2,3-b]pyridine-4,6-diamine], the IC50 (on human GST-CLK1 (129-end); against LRRK2 (G2019S); in test [1]) was 301 to 1000 nM each time.

`COc1cc(S(=O)(=O)N2CCOCC2)ccc1Nc1cc(NC2CCCCC2)c2cc[nH]c2n1` [Example 16, N^4-cyclohexyl-N^6-(2-methoxy-4-(morpholinosulfonyl)phenyl)-1H-pyrrolo[2,3-b]pyridine-4,6-diamine]: the IC50 (against human GST-CLK1 (129-end); at LRRK2 (G2019S); in test [1]) was 301 to 1000 nM each time.

On to `CCNc1cc(Nc2ccc(C(=O)N3OCC[C@H]3c3cc(F)cc(F)c3)c3c2OCC3)nc2[nH]cc(C(F)(F)F)c12` [Example 246, (S)-(3-(3,5-difluorophenyl)isoxazolidin-2-yl)(7-((4-(ethylamino)-3-(trifluoromethyl)-1H-pyrrolo[2,3-b]pyridin-6-yl)amino)-2,3-dihydrobenzofuran-4-yl)methanone], for which the IC50 (at human GST-CLK1 (129-end); against LRRK2 (G2019S); in test [1]) was 301 to 1000 nM each time.

For `O=C(c1ccc(Nc2cc(NC3CC3)c3cc[nH]c3n2)c2c1OCCO2)N1CCOCC1` [Example 7, (8-((4-(cyclopropylamino)-1H-pyrrolo[2,3-b]pyridin-6-yl)amino)-2,3-dihydrobenzo [b] [1,4]dioxin-5-yl)(morpholino) methanone], the 50% inhibitory concentration (IC50) against human GST-CLK1 (129-end) is 301 to 1000 nM; at LRRK2 (G2019S), < 100 nM; in test [1] it was 301 to 1000 nM.

Turning to `COc1cc(S(C)(=O)=O)ccc1Nc1cc(NC(C)C)c2c(Cl)c[nH]c2n1` [Example 83, 3-chloro-N^4-isopropyl-N^6-(2-methoxy-4-(methylsulfonyl)phenyl)-1H-pyrrolo[2,3-b]pyridine-4,6-diamine], the concentration for half-maximal inhibition (IC50) (against human GST-CLK1 (129-end); against LRRK2 (G2019S); in test [1]) was 301 to 1000 nM throughout.

For the molecule `CNc1cc(Nc2ccc(S(C)(=O)=O)cc2OC)nc2[nH]cc(Cl)c12` [Example 80, 3-chloro-N^6-(2-methoxy-4-(methylsulfonyl)phenyl)-N^4-methyl-1H-pyrrolo[2,3-b]pyridine-4,6-diamine], the values for the concentration for half-maximal inhibition (IC50) (against human GST-CLK1 (129-end); against LRRK2 (G2019S); in test [1]) were 301 to 1000 nM, < 100 nM and 301 to 1000 nM, respectively.

Turning to `COc1cc(S(=O)(=O)N2CCOCC2)ccc1Nc1cc(NC2CC2)c2cc[nH]c2n1` [Example 15, N^4-cyclopropyl-N^6-(2-methoxy-4-(morpholinosulfonyl)phenyl)-1H-pyrrolo[2,3-b]pyridine-4,6-diamine], the IC50 against human GST-CLK1 (129-end) was 301 to 1000 nM; on LRRK2 (G2019S), < 100 nM; in test [1] it was 301 to 1000 nM.

With `CNc1cc(Nc2ccc(S(=O)(=O)N3CCC(N4CCOCC4)CC3)cc2OC)nc2[nH]ccc12` [Example 18, N^6-(2-methoxy-4-((4-morpholinopiperidin-1-yl)sulfonyl)phenyl)-N^4-methyl-1H-pyrrolo[2,3-b]pyridine-4,6-diamine], the concentration for half-maximal inhibition (IC50) is 301 to 1000 nM against human GST-CLK1 (129-end), < 100 nM at LRRK2 (G2019S) and 301 to 1000 nM in test [1].

With `CCNc1cc(Nc2ccc(C(=O)N3CCC(N4C[C@@H](C)O[C@@H](C)C4)CC3)c3c2OCC3)nc2[nH]cc(C(F)(F)F)c12` [Example 263, (4-((2S,6R)-2,6-dimethylmorpholino)piperidin-1-yl)(7-((4-(ethylamino)-3-(trifluoromethyl)-1H-pyrrolo[2,3-b]pyridin-6-yl)amino)-2,3-dihydrobenzofuran-4-yl)methanone], the IC50 (against human GST-CLK1 (129-end); at LRRK2 (G2019S); in test [1]) was < 100 nM in each case.

In the case of `CCNc1cc(Nc2ccc(C(=O)N3OCC[C@@H]3c3cc(F)cc(F)c3)c3c2OCC3)nc2[nH]cc(C(F)(F)F)c12` [Example 245, (R)-(3-(3,5-difluorophenyl)isoxazolidin-2-yl)(7-((4-(ethylamino)-3-(trifluoromethyl)-1H-pyrrolo[2,3-b]pyridin-6-yl)amino)-2,3-dihydrobenzofuran-4-yl)methanone], the IC50 (on human GST-CLK1 (129-end); against LRRK2 (G2019S); in test [1]) was 301 to 1000 nM in each case.

`COc1cc(S(=O)(=O)N2CCOCC2)ccc1Nc1cc(NC(C)C)c2c(Cl)c[nH]c2n1` [Example 67, 3-chloro-N^4-isopropyl-N^6-(2-methoxy-4-(morpholinosulfonyl)phenyl)-1H-pyrrolo[2,3-b]pyridine-4,6-diamine]: the IC50 (at human GST-CLK1 (129-end); on LRRK2 (G2019S); in test [1]) was 301 to 1000 nM throughout.

Regarding `CCNc1cc(Nc2ccc(S(=O)(=O)N3CCOCC3)cc2OC)nc2[nH]ccc12` [Example 11, N^4-ethyl-N^6-(2-methoxy-4-(morpholinosulfonyl)phenyl)-1H-pyrrolo[2,3-b]pyridine-4,6-diamine 2,2,2-trifluoroacetate], the IC50 lay in the range of 301 to 1000 nM at human GST-CLK1 (129-end), 101 to 300 nM on LRRK2 (G2019S) and 301 to 1000 nM in test [1].

As to `CNc1cc(Nc2ccc(C(=O)N3CCOCC3)c3c2OCCO3)nc2[nH]cc(Cl)c12` [Example 56, (8-((3-chloro-4-(methylamino)-1H-pyrrolo[2,3-b]pyridin-6-yl)amino)-2,3-dihydrobenzo[b] [1,4]dioxin-5-yl)(morpholino) methanone 2,2,2-trifluoroacetate], the IC50 against human GST-CLK1 (129-end) is 301 to 1000 nM; against LRRK2 (G2019S), < 100 nM; in test [1], 301 to 1000 nM.

Consider `CCNc1cc(Nc2ccc(C(=O)N3CCN(C4CCCC4)CC3)c3c2OCC3)nc2[nH]cc(C(F)(F)F)c12` [Example 251, (4-cyclopentylpipe razin-1-yl)(7-((4-(ethylamino)-3-(trifluoromethyl)-1H-pyrrolo[2,3-b]pyridin-6-yl)amino)-2,3-dihydrobenzofuran-4-yl)methanone], for which the IC50 against human GST-CLK1 (129-end) is < 100 nM; on LRRK2 (G2019S) it was < 100 nM; in test [1] it was 101 to 300 nM.

For `COc1cc(S(=O)(=O)N2CCOCC2)ccc1Nc1cc(NC2CC2)c2c(Cl)c[nH]c2n1` [Example 68, 3-chloro-N^4-cyclopropyl-N^6-(2-methoxy-4-(morpholinosulfonyl)phenyl)-1H-pyrrolo[2,3-b]pyridine-4,6-diamine], the IC50 (against human GST-CLK1 (129-end); against LRRK2 (G2019S); in test [1]) was 301 to 1000 nM each time.

With `COc1cc(S(C)(=O)=O)ccc1Nc1cc(NC2CC2)c2c(Cl)c[nH]c2n1` [Example 84, 3-chloro-N^4-cyclopropyl-N^6-(2-methoxy-4-(methylsulfonyl)phenyl)-1H-pyrrolo[2,3-b]pyridine-4,6-diamine], the IC50 (on human GST-CLK1 (129-end); against LRRK2 (G2019S); in test [1]) was 301 to 1000 nM in each case.

Source of the values: patent US12240844B2 (Voronoi, Inc., priority 2019, dated 2025).
